Assays:
HeLa cells [1] = tested on: HeLa cells
HeLa cells [2] = conditions: 5 μM, within 30 minutes, vs untreated cells
Text: Phosphorylation of eIF2α often occurs due to the accumulation of misfolded proteins.

A2780 cells = tested on: A2780 cells
Text: (§1) Salubrinal operates by inhibiting dephosphorylation of the master regulatory protein eukaryotic initiation factor 2α (eIF2α), an integral component of the UPR. […] Next, the downstream effects of eIF2α phosphorylation were investigated. The most immediate and pronounced effect of eIF2α phosphorylation is the inhibition of translation (S. R. Kimball, Int. J. Biochem. Cell Biol. 1999, 31, 25-29).

[3] = tested on: mutant MEF cell line incapable of eIF2α phosphorylation; conditions: mutant cells after treatment
Text: as §1

[4] = tested on: National Cancer Institute (NCI)-60 cell line panel
LC3 in A2780 cells = conditions: after 24 hours
[5] = tested on: cytochrome c release from the mitochondria; conditions: flow cytometry
[6] = tested on: eIF2α phosphorylation, ATF4, CHOP in A2780 cells
Text: as §1
(§2) Hyperphosphorylation of eIF2α can lead to apoptosis via upregulation of the stress-related transcription factors ATF4 and CHOP (H. Matsumoto et al., Biol. Open 2013, 2, 1084-1090). […] Phosphorylation of eIF2α also results in cell cycle arrest in the G1 phase (J. W. Brewer et al., Proc. Natl. Acad. Sci. U.S.A. 2000, 97, 12625-12630).

[7] = tested on: proteasome inhibition, HSP90 inhibition, reactive oxygen species generation
cells = conditions: vs untreated cells
Text: as §2

HEK293 (kidney) cells = assay: MTT cell viability (cytotoxicity); format: cell-based; conditions: 48 hours incubation, non-cancer cell line
Protocol: (§3) All compounds were dissolved in PBS at pH 7.4 to prepare 1-2 mM stock solutions. For cell viability studies, all cells were grown to 80-90% confluence, detached with trypsin/EDTA, seeded in 96-well plates at 4000-8000 cells/well in 100 μL of growth media, and incubated for 24 hours. The medium was removed and replaced with fresh medium (200 μL) containing varying dilutions of either the rhenium compounds, cisplatin, or media. The cells were then incubated for 48 hours. The medium was removed from the wells, and 3-(4,5-dimethylthiazol-2-yl)-[…] (MTT) in DMEM, RPMI, or MEM (200 μL, 1 mg/mL) was added. The additional 48 hours incubation was performed to ensure that the cells were in the logarithmic growth phase and that the cells had adequate time to regrow after exposure to the complexes. After 4 hours, the MTT/DMEM, RPMI, or MEM solution was removed, and the formazan crystals were dissolved in 200 μL of an 8:1 mixture of DMSO and pH 10 glycine buffer. The absorbance at 570 nm in each well was measured using a BioTek Synergy HT plate reader. Cell viability was determined by normalizing the absorbance of the treated wells to untreated wells. The % viability data shown is an average of three independent experiments with six replicates per concentration

[8] = tested on: A2780CP70 (cisplatin-resistant ovarian cancer) cells; assay: MTT cell viability (cytotoxicity); format: cell-based; conditions: 48 hours incubation, read-out: IC50 A2780 CP70 (cisplatin-resistant ovarian cancer)
Protocol: as §3

A549 (lung cancer) cells = assay: MTT cell viability (cytotoxicity); format: cell-based; conditions: 48 hours incubation
Protocol: as §3

[9] = tested on: A2780 (ovarian cancer) cells; assay: MTT cell viability (cytotoxicity); format: cell-based; conditions: 48 hours incubation
Protocol: as §3

[10] = tested on: HeLa (cervical cancer) cells; assay: MTT cell viability (cytotoxicity); format: cell-based; conditions: 48 hours incubation
Protocol: as §3

Compound	mitochondrial morphology (HeLa cells [1]; HeLa cells, 5 μM, after only 30 minutes)	mitochondrial polarization (JC-1) (HeLa cells [1]; ratiometric sensor JC-1)	fluorescence intensity of ThT (protein aggregates) (HeLa cells [2])	puromycin incorporation (translation) (A2780 cells; 5 μM, as early as 2 hour post incubation, vs untreated controls)	factor of increase in activity in presence of salubrinal (A2780 cells; 25 μM salubrinal)	translation levels in eIF2α mutant MEF cells [3]	activity across NCI-60 cell line panel [4]	LC3II expression relative to LC3I (LC3 in A2780 cells)	cytochrome c release from mitochondria [5]	ATF4 and CHOP expression ([6]; Western blot)	eIF2α phosphorylation ([6]; as little as 2 hours after exposure)	protein misfolding via proteasome inhibition, HSP90 inhibition, or ROS generation [7]	increase in population of cells in the G1 phase (cells) [%]	IC50 (HEK293 (kidney) cells) [µM]	IC50 [8] [µM]	IC50 (A549 (lung cancer) cells) [µM]	IC50 [9] [µM]	IC50 [10] [µM]
[Re(CO)3(dmphen)(p-tol-ICN)]Cl [TRIP]	significantly rounded and punctate	mitochondria remained functional	increased significantly	substantially less puromycin	4	no changes in translation levels	most potent in melanoma and breast cancer cells lines and least effective in lung and renal cancer cell lines	large increase in LC3II expression relative to LC3I	Cytochrome c release occurs on the same time scale as apoptosis induction	both ATF4 and CHOP were upregulated	induction of eIF2α phosphorylation	no evidence has been found	18	1.9 ± 0.2	1.9 ± 1	1.4 ± 0.6	1.7 ± 0.7	1.4 ± 0.2
N.N.[Cl][Pt][Cl] [Cisplatin, cisplatin]														1.7 ± 0.2	12 ± 3	5.6 ± 0.5	1.3 ± 0.1	6.6 ± 0.7
Cc1ccc2ccc3ccc(C)nc3c2n1.[C-]#[O+].[C-]#[O+].[C-]#[O+].[Re+] [Neo-Re, [Re(CO)3(dmphen)(OH2)]^+]														9 ± 0.3	6 ± 0.2	7.7 ± 2.4	5.7 ± 0.6	4.4 ± 1.3

Reference: patent US11884685B2, “Rhenium complexes and methods of use for treating cancer” (CORNELL UNIVERSITY, priority 2018, dated 2024)
